The test system of assay [1] is Kunming male mice. In words: acetic acid writhing test on mice. The note with it: for curative effect compared with indomethacin: 100 mg/Kg versus indomethacin 50 mg/Kg; for writhe starting time (reaction latency) compared with control group: FAPM and trifloxystrobin intraperitoneal, azoxystrobin intragastric. The class given is in vivo, mouse.
For assay [2], the system named is Mouse mononuclear macrophage RAW 264.7. Kind of assay: nitric oxide production by LPS-stimulated macrophages (Griess assay). The class given is cell-based. Particulars: for Maximum inhibition rate: in %; for IC50: read-out: IC50, NO production.
Assay [3] has as its system rat uterine smooth muscle. Kind of assay: contraction of isolated rat uterine smooth muscle strips induced by PGF2α. It is filed as cell-based. Particulars: for IC50: read-out: IC50, inhibition of uterine smooth muscle contraction; for inhibitory effect on PGF2α-induced contraction: amplitude and frequency. Here is the method:
Female healthy Wistar rats weighing 230-270 g were used in the experiment. At 2 days before the experiment, Diethylstilbestrol suspension was injected intraperitoneally once at 0.1 mg/kg, resulting in artificial estrus. The rats were sacrificed by cervical dislocation, and the uterus was removed by laparotomy and immediately placed in a glass plate containing Tyrode's solution. Connective and adipose tissues attached to the uterine wall were carefully peeled off, the uterus was cut open along the mesangial line and laid flat on the bottom of the glass plate, then one side of the uterus was divided into left and right uterine muscle strips by using a surgical blade along the uterine contraction band running along smooth muscle, the two ends of the uterine muscle strip on one side were ligated with wires respectively, and then transferred into a nutrient tube which was aerated with oxygen and filled with 5 ml of Tyrode's solution and preheated to 37.2±0.5° C., with a lower end fixed and an upper end connected with a tension sensor. The materials stood for 20-30 minutes, liquid was changed 2-3 times, then the uterus was given a load of 1 g and kept for 30-60 minutes until the uterus had regular contraction waves, 40 mM KCL solution was provided for 10 minutes, and the function of the uterine muscle strips was evaluated. Then the muscle strips were relaxed and washed 2-3 times with Tyrode's solution, then let stand for 30 minutes; after standing, the uterine muscle strips were given a load of 1 g and kept for 30-60 minutes, and the administration and the observation were carried out after the uterine muscle strips contracted stably (i.e. regular contraction waveforms appear in a microcomputer display screen), the changes of relevant data such as contraction tension, amplitude and area under the contraction curve of the uterine smooth muscle strips were recorded, and the drug given was evaluated. During the experiment, the working temperature of the Tyrode's solution was kept at 37.2±0.5° C., and oxygen was continuously aerated into the nutrient tube with 1-2 bubbles per second. A cumulative dosing method was adopted, and 5 μl was administered each time, from low concentration to high concentration. A final drug concentration refers to the concentration of the drug dissolved in 5 ml Tyrode's solution in a […] tube.
Fluacrypyrim (FAPM), the first strobilurin acaricide developed by BASF SE and Nippon Soda Co., Ltd., is a Qo site inhibitor of the mitochondrial cytochrome bc1 complex. […] The area under the smooth muscle contraction curve was calculated before drug intervention and 10 minutes after different doses of drug intervention respectively. A drug dose-effect curve was plotted by taking the area under the smooth muscle contraction curve caused by PGF2α as 100%, to calculate the median effective dose (IC50 value) of the drug for inhibiting uterine smooth muscle contraction.

Assay [4] deals with Kunming female mice. Kind of assay: oxytocin-induced dysmenorrhea model in mice (diethylstilbestrol sensitization). It is filed as in vivo, mouse. Particulars: for Writhe starting time / Number of writhing times: Table 9; for Number of writhing times: within 30 min. As to the method:
(§1) A mouse dysmenorrhea model was established with reference to Yang L., Cao Z., Yu B. & Chai C. An in vivo mouse model of primary dysmenorrhea. Exp Anim. 2015, August 64, 295-303. Adult healthy Kunming female mice were randomly grouped, 10 mice in each group. Experimental mice were intragastrically given diethylstilbestrol 0.2 mg daily for 12 days. Different kinds and dosages of the inhibitors of the cytochrome bc1 complex were given intraperitoneally or intragastrically 30 min after the last administration. Indometacin (50 mg/kg) was injected intraperitoneally as positive control, PGF2α (1.3 mg/kg) or oxytocin (20 U/kg) was injected intraperitoneally 1 h later, and the writhe starting time (reaction latency) and the number of writhing times within 30 min were observed and recorded.

Assay [5] deals with Kunming female mice. In words: PGF2α-induced dysmenorrhea model in mice (diethylstilbestrol sensitization). It is filed as in vivo, mouse. The note with it: for Writhe starting time / Number of writhing times: Table 8; for Number of writhing times: within 30 min. Here is the method:
as §1
On the technique in general: An intraperitoneal irritant provokes the stretching counted in writhing tests.

Where [6] appears, read: Mus musculus, RAW264.7, LPS 1 μg/mL, 24 h.
[7] abbreviates: Rattus norvegicus, 10 min, PGF2α (450 nM), area under the contraction curve 10 minutes after drug.
[8] abbreviates: Table 6, 200 mg/Kg intragastric.
[9] abbreviates: Table 6, 200 mg/Kg intragastric, within 30 min.
[10] abbreviates: PGF2α (450 nM), area under the contraction curve 10 minutes after drug.
The mark [11] stands for this setting: 50 mg/Kg versus indomethacin 50 mg/Kg.

The values that follow come from US11058690B2, “Use of cytochrome bc1 complex inhibitor in preparing pharmaceutical composition” (BEIJING WEILANZHIYUAN MEDICAL TECHNOLOGY CO., LTD., priority 2017, dated 2021).

Like-named read-outs stand apart in the source and are kept apart here.

As a reminder, the IC50 is the concentration needed to halve the response being measured. Turning to `CON=C(C(=O)OC)c1ccccc1CON=C(C)c1cccc(C(F)(F)F)c1` [trifloxystrobin], the “curative effect compared with indomethacin” value in assay [1] was “equivalent to indomethacin at 50 mg/Kg”. Also, the “writhe starting time (reaction latency) compared with control group” value in assay [1] is “significantly prolonged”. In addition, the “Number of writhing times” value in assay [1] (Table 4, 50 mg/Kg intraperitoneal, within 30 min) stood at 22.3 ± 1.2; in assay [1] (ip, 100 mg/kg, 0.5 h) it was 14.0 ± 1.7; in assay [1] (ip, 200 mg/kg, 0.5 h), 4.0 ± 2.3. In addition, the Writhe starting time was determined as 3.3 ± 0.5 min in assay [1] (ip, 50 mg/kg); 4.3 ± 1.6 min in assay [1] (ip, 100 mg/kg); 8.5 ± 2.4 min in assay [1] (ip, 200 mg/kg). The Maximum inhibition rate in assay [2] (LPS 1 μg/mL, 24 h) stood at 90.7 ± 2.9%. Moreover, the IC50 in assay [2] (setting [6]) was determined as 0.64 ± 0.21 µM; in assay [3] (setting [7]), 1.77 ± 0.05 µM.

Turning to `CO/C=C(/C(=O)OC)c1ccccc1COc1cccc(C(F)(F)F)n1` [Picoxystrobin, picoxystrobin], the “Writhe starting time” value in assay [1] (200 mg/Kg intragastric) was “not prolonged”; in assay [1] (setting [8]) it was 3.3 ± 1.0 min. Besides, the “effect on number of writhing times” value in assay [1] (200 mg/Kg intragastric) was “obviously inhibited”. Further, the “Number of writhing times” value in assay [1] (setting [9]) worked out at 29.3 ± 4.7. The IC50 in assay [3] (setting [10]) came to 1.2 ± 0.02 µM.

`O=C1C(O)=C([C@H]2CC[C@H](c3ccc(Cl)cc3)CC2)C(=O)c2ccccc21` [atovaquone, reference compound]: the IC50 in assay [3] (setting [7]) came to 8.44 ± 0.7 µM.

For `CO/C(=C/C(N)=O)[C@H](C)[C@H](/C=C/c1csc(-c2csc([C@@H](C)/C=C/C=C/C(C)C)n2)n1)OC` [Myxothiazol, myxothiazol, reference compound], in assay [2] (LPS 1 μg/mL, 24 h), the Maximum inhibition rate is 95% and the IC50 is 0.0028 µM. Further, the “inhibitory effect on PGF2α-induced contraction” value in assay [3] (PGF2α (450 nM)) is “strongest inhibitory effect”. In addition, in assay [3] (PGF2α-induced), the “IC50 values (level in words)” value is on record as “nanomolar level” and the 50% inhibitory concentration (IC50) came to 0.215 µM.

Turning to `CO/N=C(/C(=O)OC)c1ccccc1COc1ccccc1C` [kresoxim-methyl], the figures for the “Writhe starting time” value in assay [1] (200 mg/Kg intragastric) and in assay [1] (setting [8]) were “not prolonged” and 3.4 ± 1.0 min, respectively. Moreover, the “effect on number of writhing times” value in assay [1] (200 mg/Kg intragastric) was “obviously inhibited”. The “Number of writhing times” value in assay [1] (setting [9]) is reported as 33.0 ± 2.9. Also, in assay [2] (LPS 1 μg/mL, 24 h), the Maximum inhibition rate turned out to be 88.7 ± 5.6%. The IC50 in assay [2] (setting [6]) turned out to be 2.77 ± 0.69 µM; in assay [3] (setting [7]), 4.08 ± 0.29 µM.

As to `CO/C=C(/C(=O)OC)c1ccccc1Oc1cc(Oc2ccccc2C#N)ncn1` [azoxystrobin], the entries for the “curative effect compared with indomethacin” value in assay [1], in assay [4] (setting [11]) and in assay [5] (setting [11]) were “equivalent to indomethacin at 50 mg/Kg”, “equivalent to 50 mg/Kg of indomethacin” and “equivalent to indomethacin at 50 mg/Kg”, respectively. Also, in assay [1], the “writhe starting time (reaction latency) compared with control group” value was “not significantly prolonged”. For the same compound, the Writhe starting time in assay [1] (Table 5, 50 mg/Kg intragastric) amounted to 3.2 ± 1.1 min; in assay [1] (Table 5, 100 mg/Kg intragastric), 3.4 ± 1.8 min; in assay [1] (Table 5, 200 mg/Kg intragastric), 3.7 ± 1.5 min; in assay [1] (Table 5, 400 mg/Kg intragastric), 3.4 ± 1.2 min; in assay [4] (50 mg/Kg intragastric) it was 3.3 ± 1.5; in assay [4] (100 mg/Kg intragastric), 3.9 ± 1.5. The Writhe starting time in assay [4] (200 mg/Kg intragastric) was found to be 3.3 ± 1.3; in assay [5] (50 mg/Kg intragastric) it was 2.1 ± 1.0 min; in assay [5] (100 mg/Kg intragastric), 2.0 ± 1.1 min; in assay [5] (200 mg/Kg intragastric) it was 2.2 ± 0.8 min. The “Number of writhing times” value is 31.9 ± 3.1 in assay [1] (Table 5, 50 mg/Kg intragastric, within 30 min); 24.9 ± 4.6 in assay [1] (Table 5, 100 mg/Kg intragastric, within 30 min); 21.6 ± 3.5 in assay [1] (Table 5, 200 mg/Kg intragastric, within 30 min); 12.4 ± 4.2 in assay [1] (Table 5, 400 mg/Kg intragastric, within 30 min); 24.2 ± 4.1 in assay [4] (50 mg/Kg intragastric); 14.2 ± 2.2 in assay [4] (100 mg/Kg intragastric). Further, the “Number of writhing times” value in assay [4] (200 mg/Kg intragastric) turned out to be 7.6 ± 1.9; in assay [5] (50 mg/Kg intragastric) it was 17.7 ± 1.9; in assay [5] (100 mg/Kg intragastric) it was 12.8 ± 2.4; in assay [5] (200 mg/Kg intragastric), 10.3 ± 1.3. Besides, the “effect on number of writhing times” value is “in a dose-dependent manner” in assay [4] (intragastric 50, 100 and 200 mg/Kg); “in a dose-dependent manner” in assay [5] (FAPM intraperitoneal, azoxystrobin intragastric, 50, 100 and 200 mg/Kg one hour before). This compound gave a Maximum inhibition rate in assay [2] (LPS 1 μg/mL, 24 h) of 86.7 ± 4.3%. In addition, the IC50 in assay [2] (LPS 1 μg/mL, 24 h) turned out to be 1.89 ± 0.35 µM; in assay [3] (setting [10]), 1.7 ± 0.12 µM.

With `CC(C)c1c(C(=O)Nc2ccccc2)c(-c2ccccc2)c(-c2ccc(F)cc2)n1CC[C@@H](O)C[C@@H](O)CC(=O)O` [atorvastatin, reference compound], in assay [3] (setting [7]), the IC50 is 8.44 ± 0.7 µM.

Regarding `COC(=O)N(OC)c1ccccc1COc1ccn(-c2ccc(Cl)cc2)n1` [Pyraclostrobin, pyraclostrobin], the IC50 in assay [3] (setting [7]) came out at 1.05 ± 0.01 µM.

Regarding `CNC(=O)/C(=N/OC)c1ccccc1COc1cc(C)ccc1C` [Dimoxystrobin, dimoxystrobin], the “Writhe starting time” value in assay [1] (200 mg/Kg intragastric) is “not prolonged”; in assay [1] (setting [8]) it was 3.3 ± 0.5 min. In addition, in assay [1] (200 mg/Kg intragastric), the “effect on number of writhing times” value is “obviously inhibited”. For the same compound, the “Number of writhing times” value in assay [1] (setting [9]) worked out at 31.5 ± 4.7. For the same compound, the IC50 in assay [3] (setting [10]) was found to be 1.65 ± 0.12 µM.

Take `CO/N=C(/C1=NOCCO1)c1ccccc1Oc1ncnc(Oc2ccccc2Cl)c1F` [Fluoxastrobin, fluoxastrobin]: in assay [3] (setting [7]), the IC50 worked out at 2.63 ± 0.3 µM.

In the case of `C/C=C(C)/C=C/C=C/[C@H](OC)[C@@H](C)[C@@H](OC)[C@@H](C)CCc1oc2c(O)c(OC)cc(OC)c2c(=O)c1C` [Stigmatellin, reference compound], the Maximum inhibition rate in assay [2] (LPS 1 μg/mL, 24 h) came out at 88.3±3.9%. The IC50 in assay [2] (Mus musculus, RAW264.7, 24 h) was determined as 0.00624 ± 0.00115 µM; in assay [3] (Rattus norvegicus, PGF2α-induced) it was 0.0899 µM. Also, the “inhibitory effect on PGF2α-induced contraction” value in assay [3] (PGF2α (450 nM)) is listed as “strongest inhibitory effect”. Besides, the “IC50 values (level in words)” value in assay [3] (PGF2α-induced) is reported as “nanomolar level”.
